Measured values as given in PubChem BioAssay AID330 (DTP/NCI, 2004).
Where “and” joins values, the source holds several entries; their conditions need not be identical. Identical values can stand only once. Inconclusive results and toxic doses are left out.

System: P388 leukemia ip, CD2F1 mice, survival T/C
Assay: NCI In Vivo Anticancer Drug Screen. Data for tumor model P388 Leukemia (intraperitoneal) in CD2F1 (CDF1) mice
Settings: endpoint: median survival time, higher = longer survival
Procedure, shortened: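 Mice carrying the transplanted tumor received test compound or vehicle. Survival was recorded in each group, and the value is the treated-group measurement divided by that of the vehicle-treated control group.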

[1] = dose: 7.5 mg/kg/injection, schedule: Q01DX005 (ip), vehicle: saline
[2] = dose: 15.0 mg/kg/injection, schedule: Q01DX005 (ip), vehicle: saline
[3] = dose: 50.0 mg/kg/injection, schedule: Q01DX005 (ip), vehicle: Klucel (hydroxypropylcellulose) (HPC)
[4] = dose: 100.0 mg/kg/injection, schedule: Q01DX005 (ip), vehicle: Klucel (hydroxypropylcellulose) (HPC)
[5] = dose: 200.0 mg/kg/injection, schedule: Q01DX005 (ip), vehicle: Klucel (hydroxypropylcellulose) (HPC)
[6] = dose: 30.0 mg/kg/injection, schedule: Q01DX005 (ip), vehicle: saline
[7] = dose: 50.0 mg/kg/injection, schedule: Q01DX009 (ip), vehicle: saline with Tween-80
[8] = dose: 100.0 mg/kg/injection, schedule: Q01DX009 (ip), vehicle: saline with Tween-80
[9] = dose: 200.0 mg/kg/injection, schedule: Q01DX009 (ip), vehicle: saline with Tween-80
[10] = dose: 50.0 mg/kg/injection, schedule: Q01DX005 (ip), vehicle: saline
[11] = dose: 100.0 mg/kg/injection, schedule: Q01DX005 (ip), vehicle: saline
[12] = dose: 200.0 mg/kg/injection, schedule: Q01DX005 (ip), vehicle: saline
[13] = dose: 60.0 mg/kg/injection, schedule: Q01DX005 (ip), vehicle: saline
[14] = dose: 120.0 mg/kg/injection, schedule: Q01DX005 (ip), vehicle: saline
[15] = dose: 60.0 mg/kg/injection, schedule: Q01DX005 (ip), vehicle: Klucel (hydroxypropylcellulose) (HPC)
[16] = dose: 120.0 mg/kg/injection, schedule: Q01DX005 (ip), vehicle: Klucel (hydroxypropylcellulose) (HPC)
[17] = dose: 240.0 mg/kg/injection, schedule: Q01DX005 (ip), vehicle: Klucel (hydroxypropylcellulose) (HPC)
[18] = dose: 12.5 mg/kg/injection, schedule: Q01DX009 (ip), vehicle: saline
[19] = dose: 25.0 mg/kg/injection, schedule: Q01DX009 (ip), vehicle: saline
[20] = dose: 50.0 mg/kg/injection, schedule: Q01DX009 (ip), vehicle: saline
[21] = dose: 50.0 mg/kg/injection, schedule: Q01DX005 (ip), vehicle: saline with Tween-80
[22] = dose: 100.0 mg/kg/injection, schedule: Q01DX005 (ip), vehicle: saline with Tween-80
[23] = dose: 200.0 mg/kg/injection, schedule: Q01DX005 (ip), vehicle: saline with Tween-80
[24] = dose: 60.0 mg/kg/injection, schedule: Q01DX005 (ip), vehicle: saline with Tween-80
[25] = dose: 120.0 mg/kg/injection, schedule: Q01DX005 (ip), vehicle: saline with Tween-80
[26] = dose: 240.0 mg/kg/injection, schedule: Q01DX005 (ip), vehicle: saline with Tween-80

With `CCN(CC)c1ccc2nc3ccc(=[N+](CC)CC)cc-3oc2c1` the T/C [1] was 105 % of control and the T/C [2] was 109 % of control.
`CC(C)(C)OC(=O)C(Cc1cnc2nc(N)nc(N)c2n1)C(=O)OC(C)(C)C` was tested, and the T/C (dose: 3.13 mg/kg/injection, schedule: Q01DX009 (ip), vehicle: distilled water + Tween-80) was 103 % of control, the T/C (dose: 6.25 mg/kg/injection, schedule: Q01DX009 (ip), vehicle: distilled water + Tween-80) was 98 % of control and the T/C (dose: 12.5 mg/kg/injection, schedule: Q01DX009 (ip), vehicle: distilled water + Tween-80) was 95 % of control. The T/C (dose: 25.0 mg/kg/injection, schedule: Q01DX009 (ip), vehicle: distilled water + Tween-80) was 95 % of control and the T/C (dose: 50.0 mg/kg/injection, schedule: Q01DX009 (ip), vehicle: distilled water + Tween-80) was 93 % of control.
With `CC1=NCC(=O)O1` the T/C [3] was 98 % of control, the T/C [4] was 98 % of control and the T/C [5] was 102 % of control.
With `CN1C2CCC1CC(Cl)C2` (stereo not given) the T/C (dose: 6.0 mg/kg/injection, schedule: Q01DX005 (ip), vehicle: saline) was 107 % of control, the T/C [1] was 91 % of control and the T/C (dose: 12.0 mg/kg/injection, schedule: Q01DX005 (ip), vehicle: saline) was 107 % of control. The T/C [2] was 99 % of control, the T/C (dose: 25.0 mg/kg/injection, schedule: Q01DX005 (ip), vehicle: saline) was 102 % of control and the T/C [6] was 99 % of control.
For `O=C1C=C(N(CCCl)CCCl)C(=O)C=C1N(CCCl)CCCl`, the T/C (dose: 50.0 mg/kg/injection, schedule: Q04DX003 (ip), vehicle: Klucel (hydroxypropylcellulose) (HPC)) was 101 % of control and the T/C (dose: 200.0 mg/kg/injection, schedule: Q04DX003 (ip), vehicle: Klucel (hydroxypropylcellulose) (HPC)) was 178 % of control.
`O=CNNC(=S)Nc1ccccc1` was tested, and the T/C [7] was 113 % of control, the T/C [8] was 109 % of control and the T/C [9] was 108 % of control.
For `O=COCC1(c2ccncc2)OCCO1`, the T/C [10] was 108 % of control, the T/C [11] was 107 % of control and the T/C [12] was 99 % of control.
`COC(=O)c1cc(C=C(C)C)[nH]c(=O)c1C#N` was tested, and the T/C [6] was 99 % of control, the T/C [13] was 100 % of control and 107 % of control and the T/C [14] was 107 % of control.
In the case of `CNC(=O)NC(c1cc(OC)c(O)c(OC)c1)c1cc2c(cc1O)OCO2` (stereo not given), the T/C [15] is reported as 95 % of control, the T/C [16] is reported as 94 % of control and the T/C [17] is reported as 87 % of control.
For `CCOC(=O)c1nc(Cl)cn(O)c1=N`, the T/C [8] was 104 % of control, the T/C [9] was 99 % of control and the T/C (dose: 400.0 mg/kg/injection, schedule: Q01DX009 (ip), vehicle: saline with Tween-80) was 93 % of control.
With `Cc1cc(C2(c3cc(C)c(O)c(CN(CC(=O)O)CC(=O)O)c3)OC(=O)c3ccccc32)cc(CN(CC(=O)O)CC(=O)O)c1O` the T/C [7] was 100 % of control, the T/C [8] was 100 % of control and the T/C [9] was 97 % of control.
`COC1=C(OC)C(=O)C(CO)=CC1=O` was tested, and the T/C [1] was 104 % of control and the T/C [2] was 87 % of control.
For `CC1CC(C)N(C)C(C)C1` (stereo not given), the T/C [2] was 103 % of control, the T/C [6] was 99 % of control and the T/C [13] was 104 % of control.
With `CC(O)C1CCCCN1` (stereo not given) the T/C [10] was 101 % of control, the T/C [11] was 101 % of control and the T/C [12] was 108 % of control.
For `CCCCc1c[nH]n(C(N)=NCCSCc2nc[nH]c2C)c1=O`, the T/C [15] was 94 % of control, the T/C [16] was 98 % of control and the T/C [17] was 93 % of control.
For `CC(C)[N+](C)(C)CC(O)COc1ccccc1-c1ccccc1` (stereo not given), the T/C [18] was 100 % of control, the T/C [19] was 98 % of control and the T/C [20] was 93 % of control and 97 % of control.
`COc1ccccc1C1N(C)CCCN1C` was tested, and the T/C (dose: 6.25 mg/kg/injection, schedule: Q01DX009 (ip), vehicle: saline) was 95 % of control, the T/C [18] was 95 % of control and the T/C [19] was 100 % of control.
With `COc1ccc(CCNC(=O)c2ccc(OC)c(OCc3ccccc3)c2)cc1OC` the T/C (dose: 25.0 mg/kg/injection, schedule: Q01DX009 (ip), vehicle: other) was 97 % of control, the T/C (dose: 50.0 mg/kg/injection, schedule: Q01DX009 (ip), vehicle: other) was 95 % of control and the T/C (dose: 100.0 mg/kg/injection, schedule: Q01DX009 (ip), vehicle: other) was 89 % of control. The T/C (dose: 200.0 mg/kg/injection, schedule: Q01DX009 (ip), vehicle: other) was 89 % of control and the T/C (dose: 400.0 mg/kg/injection, schedule: Q01DX009 (ip), vehicle: other) was 90 % of control.
With `Cc1cc(=O)oc2c1cc(OCC(=O)OCCN1CCCCC1)c1occ(C)c12` the T/C [21] was 99 % of control, the T/C [22] was 92 % of control and the T/C [23] was 93 % of control.
`C/C(=N/NC(=O)CCl)c1ccccc1` was tested, and the T/C (dose: 75.0 mg/kg/injection, schedule: Q01DX009 (ip), vehicle: saline with Tween-80) was 108 % of control.
`NC(CSSCC(NC(=O)c1ccccc1)C(=O)O)C(=O)O` (stereo not given) was tested, and the T/C [3] was 103 % of control and 99 % of control, the T/C [4] was 106 % of control and 96 % of control and the T/C [5] was 100 % of control and 101 % of control and 111 % of control.
With `O=[N+]([O-])c1ncccc1NCCN1CCCC1` the T/C [18] was 104 % of control, the T/C [19] was 100 % of control and the T/C [20] was 106 % of control and 108 % of control.
With `COC(=O)c1nc2nnc(NC(=O)Nc3ccc(Cl)cc3)n2c(-c2ccc(Cl)cc2)c1C` the T/C [24] was 99 % of control, the T/C [25] was 99 % of control and the T/C [26] was 100 % of control.
With `Cc1cc(C)cc(C(=O)NC(c2ccncc2)C2N=C(c3ccccc3)OC2=O)c1` (stereo not given) the T/C [24] was 98 % of control, the T/C [25] was 94 % of control and the T/C [26] was 94 % of control.
With `COc1ccccc1OCC(Cn1c(=O)nc(-c2ccccc2)c2cc(Cl)ccc21)OC(N)=O` (stereo not given) the T/C [21] was 104 % of control, the T/C [22] was 100 % of control and the T/C [23] was 95 % of control.
`CC1(C)OC[C@@H](N)[C@@H](O)CO1` was tested, and the T/C [13] was 104 % of control, the T/C [14] was 104 % of control and the T/C (dose: 240.0 mg/kg/injection, schedule: Q01DX005 (ip), vehicle: saline) was 118 % of control.
With `CCCCCCCC(=O)Nc1ncc([N+](=O)[O-])s1` the T/C (dose: 50.0 mg/kg/injection, schedule: Q01DX009 (ip), vehicle: Klucel (hydroxypropylcellulose) (HPC)) was 106 % of control, the T/C (dose: 100.0 mg/kg/injection, schedule: Q01DX009 (ip), vehicle: Klucel (hydroxypropylcellulose) (HPC)) was 106 % of control and the T/C (dose: 200.0 mg/kg/injection, schedule: Q01DX009 (ip), vehicle: Klucel (hydroxypropylcellulose) (HPC)) was 113 % of control.
`Nc1nc(-c2cc(-c3cccc4ccccc34)nc(N)n2)cc(-c2cccc3ccccc23)n1` was tested, and the T/C (dose: 60.0 mg/kg/injection, schedule: Q01DX005 (ip), vehicle: suspension in saline) was 101 % of control, the T/C (dose: 120.0 mg/kg/injection, schedule: Q01DX005 (ip), vehicle: suspension in saline) was 100 % of control and the T/C (dose: 240.0 mg/kg/injection, schedule: Q01DX005 (ip), vehicle: suspension in saline) was 105 % of control.
With `Cc1ccc(N(O)C(=O)c2ccccc2)c(C)c1` the T/C [21] was 102 % of control and 98 % of control, the T/C [22] was 92 % of control and 93 % of control and the T/C [23] was 123 % of control and 98 % of control. The T/C (dose: 400.0 mg/kg/injection, schedule: Q01DX005 (ip), vehicle: saline with Tween-80) was 111 % of control.
With `Nc1nc(-c2ccccn2)cc2c(Cl)cccc12` the T/C [24] was 86 % of control, the T/C [25] was 115 % of control and the T/C [26] was 97 % of control.
For `Nc1nc(N)c2[nH]c(N=Nc3ccc(N(CCO)CCO)cc3)nc2n1`, the T/C [21] was 106 % of control, the T/C [22] was 106 % of control and the T/C [23] was 108 % of control.
With `Cn1cnc([N+](=O)[O-])c1[Se]c1ncnc2c1c(C#N)cn2C1OC(CO)C(O)C1O` (stereo not given) the T/C (dose: 12.5 mg/kg/injection, schedule: Q04DX003 (ip), vehicle: saline) was 103 % of control, the T/C (dose: 25.0 mg/kg/injection, schedule: Q04DX003 (ip), vehicle: saline) was 116 % of control and the T/C (dose: 50.0 mg/kg/injection, schedule: Q04DX003 (ip), vehicle: saline) was 116 % of control.
For `Nc1ncnc2nc(Br)[nH]c12`, the T/C [3] was 111 % of control, the T/C [4] was 95 % of control and the T/C [5] was 106 % of control.
`C1CN2CCN3CCCN4CCN(C1)C2C34` (stereo not given) was tested, and the T/C [10] was 93 % of control, the T/C [11] was 108 % of control and the T/C [12] was 111 % of control.
